{"source": "patent US7981930B2", "about": "“Compositions and kits for treating influenza” (Adamas Pharmaceuticals, Inc., priority 2007, dated 2011)", "tested_on": "wild type A/Albany (H3N2) strain", "experiment": "Hollow fiber system, MDCK cells, continuous infusion 168 hours, viral titer and sequencing", "type": "cell-based, Influenza A virus (H3N2)", "settings": "monotherapy arms vs. triple high dose arm"}
{"smiles": "CCOC(=O)C1=C[C@@H](OC(CC)CC)[C@H](NC(C)=O)[C@@H](N)C1", "note": "[Oseltamivir]", "values": [{"measurement": "formation of drug resistance (M2, NA sequencing)", "value": "appreciable formation of M2 and NA drug resistance"}]}
